We go through one compound from publication PMC3953731 (FEBS Open Bio, 2014).

Where two headings read alike, the source gives them in different places.

The target in assay [1] is T1, Ima1p (Saccharomyces cerevisiae, UniProt P53051). Kind of assay: Substrate specificity of purified isomaltase. The format is biochemical. The conditions noted are these: 100 mM substrate (pNPG 5 mM), citrate–potassium phosphate buffer, pH 7, 30 °C.
Assay [2] addresses Ima2p (Saccharomyces cerevisiae, UniProt Q08295). Put plainly: Substrate specificity of purified isomaltase. The conditions noted are these: 100 mM substrate (pNPG 5 mM), citrate–potassium phosphate buffer, pH 7, 30 °C. The format is biochemical.
Assay [3] concerns the target Ima3p (Saccharomyces cerevisiae, UniProt P0CW40). Put plainly: Substrate specificity of purified isomaltase. The conditions noted are these: 100 mM substrate (pNPG 5 mM), citrate–potassium phosphate buffer, pH 7, 30 °C. The format is biochemical.
In assay [4] the target is T2, Ima5p (Saccharomyces cerevisiae, UniProt P40884).
T2 sequence (P40884 1-581): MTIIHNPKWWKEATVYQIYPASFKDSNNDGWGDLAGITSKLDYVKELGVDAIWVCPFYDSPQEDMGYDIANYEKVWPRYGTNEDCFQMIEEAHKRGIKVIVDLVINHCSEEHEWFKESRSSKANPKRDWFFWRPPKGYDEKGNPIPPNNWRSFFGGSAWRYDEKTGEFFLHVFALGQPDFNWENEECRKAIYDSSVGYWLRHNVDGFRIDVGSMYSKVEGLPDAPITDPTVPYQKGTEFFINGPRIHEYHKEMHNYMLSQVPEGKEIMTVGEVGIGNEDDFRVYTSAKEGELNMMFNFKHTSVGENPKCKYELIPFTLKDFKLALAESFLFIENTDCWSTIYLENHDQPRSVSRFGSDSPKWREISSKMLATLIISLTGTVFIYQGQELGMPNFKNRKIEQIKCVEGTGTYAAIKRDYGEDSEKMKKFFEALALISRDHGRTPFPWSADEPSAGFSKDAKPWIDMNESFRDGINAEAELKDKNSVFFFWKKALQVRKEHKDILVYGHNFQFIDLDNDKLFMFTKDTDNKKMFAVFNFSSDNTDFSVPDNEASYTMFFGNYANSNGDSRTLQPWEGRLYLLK
Kind of assay: Substrate specificity of purified isomaltase. Type of assay: biochemical. The conditions noted are these: 100 mM substrate (pNPG 5 mM), citrate–potassium phosphate buffer, pH 7, 30 °C.

The target of assay [5] is T1, Ima1p. Put plainly: Inhibition by maltose of isomaltose hydrolysis. The format is biochemical.
Assay [6] addresses T2, Ima5p. Kind of assay: Inhibition by maltose of isomaltose hydrolysis. The conditions noted are these: isomaltose up to 50 mM. Type of assay: biochemical.
For assay [7], the system named is the four isomaltases (Ima1p, Ima2p, Ima3p, Ima5p). Put plainly: Activity of the isomaltases on substrates. Type of assay: biochemical, Saccharomyces cerevisiae. The conditions noted are these: all Ima proteins.
The subject of assay [8] is the four isomaltases (Ima proteins). Put plainly: Effect of compounds on melting temperature of isomaltases. More on the design: species or system Saccharomyces cerevisiae. The conditions noted are these: presence of maltose, results not shown.
Assay [9] addresses T1, Ima1p. The conditions noted are these: isomaltose 50–500 mM; cited from earlier work.

T1 sequence (P53051 whole entry): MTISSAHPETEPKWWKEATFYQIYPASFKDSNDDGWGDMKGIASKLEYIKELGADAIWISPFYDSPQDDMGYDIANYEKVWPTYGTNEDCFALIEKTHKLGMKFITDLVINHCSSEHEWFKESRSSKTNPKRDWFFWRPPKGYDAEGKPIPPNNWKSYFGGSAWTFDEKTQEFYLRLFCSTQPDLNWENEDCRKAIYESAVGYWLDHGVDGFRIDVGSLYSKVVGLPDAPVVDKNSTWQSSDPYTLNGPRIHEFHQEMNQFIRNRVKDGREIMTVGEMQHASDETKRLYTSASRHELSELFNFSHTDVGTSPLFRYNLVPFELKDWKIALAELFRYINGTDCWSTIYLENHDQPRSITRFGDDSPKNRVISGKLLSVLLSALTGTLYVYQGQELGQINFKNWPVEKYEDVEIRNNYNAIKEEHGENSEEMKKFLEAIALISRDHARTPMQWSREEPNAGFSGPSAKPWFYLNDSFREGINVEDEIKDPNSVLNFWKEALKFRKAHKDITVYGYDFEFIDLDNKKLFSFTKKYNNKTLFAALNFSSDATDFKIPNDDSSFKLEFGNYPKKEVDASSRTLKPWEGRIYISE
Chain of Ima2p (Q08295 whole entry): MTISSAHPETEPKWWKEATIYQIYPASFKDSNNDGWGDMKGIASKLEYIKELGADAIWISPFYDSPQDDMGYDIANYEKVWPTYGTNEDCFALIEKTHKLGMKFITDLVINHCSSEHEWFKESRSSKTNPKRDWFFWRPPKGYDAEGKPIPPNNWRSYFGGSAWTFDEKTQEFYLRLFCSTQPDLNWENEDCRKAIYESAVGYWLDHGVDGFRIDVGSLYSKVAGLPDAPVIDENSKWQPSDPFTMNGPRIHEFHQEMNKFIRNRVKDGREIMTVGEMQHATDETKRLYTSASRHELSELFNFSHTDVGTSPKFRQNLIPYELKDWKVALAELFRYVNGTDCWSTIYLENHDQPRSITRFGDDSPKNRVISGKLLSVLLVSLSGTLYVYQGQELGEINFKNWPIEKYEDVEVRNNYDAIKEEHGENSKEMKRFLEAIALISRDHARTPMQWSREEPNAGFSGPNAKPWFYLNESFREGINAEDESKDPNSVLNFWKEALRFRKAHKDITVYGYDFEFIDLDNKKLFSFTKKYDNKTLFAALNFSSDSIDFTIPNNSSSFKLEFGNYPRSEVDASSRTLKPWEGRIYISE
Chain of Ima3p (P0CW40 whole entry): as the sequence (Q08295 whole entry) above, with A54T, P240L, Q279R counted along it

For the compound `OC[C@H]1O[C@H](O[C@H]2[C@H](O)[C@@H](O)[C@H](O)O[C@@H]2CO)[C@H](O)[C@@H](O)[C@@H]1O` [Maltose, O-α-D-Glucosyl-(1→4)-α-D-glucose], the Specific activities in [1], in assay [2], in assay [3] and in [4] was 0 µmol/min/mg each time. Moreover, the type of inhibition result in assay [5] (at high substrate concentration) is “uncompetitive inhibition”; in assay [5] (at low substrate concentration), “competitive inhibition”; in assay [6] it was “mixed inhibition”; in assay [9], “competitive inhibitor”. The “activity on the substrate” value in [7] is “totally inactive”. For the same compound, in [8], the “effect on melting temperature” value is “did not affect the melting temperature”.
